# Patent US12414991B2, “Azobenzene derivatives, process for their preparation and their use for therapeutic treatment associated with ionizing radiations” (CENTRE NATIONAL DE LA RECHERCHE SCIENTIFIQUE, priority 2019, dated 2025)
# Experiments:
# [1] = system: CCRF-CEM ARAC-8C cells (Gem-resistant human acute lymphoblastic leukemia); test: Therapeutic effect under ionizing radiation: cell viability by trypan blue cell count; assay type: cell-based
# Protocol: Just before the experiment, the cells (CCRF-CEM ARAC-8C) were dispersed in PBS and transferred to a 48-well microplate (TPP cell culture microplates purchased from Thermo Fisher Scientific, France) (40,000 cells in 80 μL/well). Gem (20 μL, final concentration 0.1 μM) or PBS (20 μL) and cis-GdAzo compound (100 μL, final concentration 0 μM, 250 μM, 500 μM or 850 μM) were added just prior to gamma irradiation of the medium (2 Gy). The medium was maintained in the dark and in a humid atmosphere at 37° C. with 5% CO2 for 1 h. Next, culture medium (600 μL) was added to each well and the cells were washed by three centrifugation cycles (300 G, 5 min, 800 μL of culture medium used for each wash). The cells were finally dispersed in culture medium (600 μL) containing or not containing Gem (final concentration 0 μM or 0.1 μM) and were maintained in a humid atmosphere at 37° C. with 5% CO2 for 4 days. The number of live cells was determined by cell count in the presence of 1:1 (v/v) trypan blue (triplicate). The experiment was repeated three times independently. Cell viability was expressed as the ratio of the number of living cells after treatment to the number of living cells without any treatment (without irradiation, in the absence of Gem and cis-GdAzo). A similar procedure was used for the control experiment without irradiation except that the 48-well microplate was not irradiated with gamma rays. A similar procedure was used for the control experiment with Dotarem® (FIG. 2f) except that Dotarem® was used instead of cis-GdAzo. The cis-GdAzo compound was obtained by UV irradiation (365 nm, 0.817 mW·cm−2, 30 min) of the trans-GdAzo compound (105 μL, 500 μM, 1 mM or 1.7 mM, cis-GdAzo>85%) in a 96-well microplate.
# Cells (PANC-1) = test: Confocal microscopy in the presence of ionizing radiation: cell permeabilization (propidium iodide); assay type: cell-based, human
# Protocol: Cells (PANC-1) were transferred to an imaging plate (Lab-Tek chamber slide system, glass, 8-well purchased from Thermo Fisher Scientific, France) 24 h before the start of the experiment, and were maintained in culture medium (10,000 cells in 200 μL/well) in a humid atmosphere at 37° C. with 5% CO2. Just before the experiment, the cell medium was replaced with PBS (100 μL) and IP (5 μL, final concentration 1 μM) was added to the medium. 15 min after the addition of PI, cis-GdAzo (100 μL, final concentration 0 μM, 250 μM, 500 μM or 850 μM) was introduced into the cell medium. A first series of images was acquired at this stage, and then the imaging plate was irradiated (gamma rays, 2 Gy). The imaging plate was then kept in the dark at 37° C. (plate warmer) and images were acquired every 5 min for 30 min and then every 10 min for 90 min. A similar procedure was used for the control experiment without irradiation except that the imaging plate was not irradiated with gamma rays. The cis-GdAzo compound was obtained by UV irradiation (365 nm, 0.817 mW·cm^−2, 30 min) of the trans-GdAzo compound (105 μL, 500 μM, 1 mM or 1.7 mM, cis-GdAzo>85%) in a 96-well microplate. […] The instrument was equipped with a laser diode at 561 nm as excitation wavelength. The red fluorescence emission was collected over a bandwidth of 598-672 nm and the transmission images were obtained with a white diode. The pinhole was set at 50 μm and the magnification lens at 1.2. The images were recorded by an e-Volve s-CMOS camera (Photometrics). Four images were recorded per well and two wells were used for each concentration of cis-GdAzo. Analysis of the 16-bit digital images was performed using ImageJ software (version 1.50i with the Adjustable Watershed plugin). The number of cells in the images acquired before irradiation was determined manually and the number of fluorescent cells in the images acquired before and after irradiation was calculated automatically using a script coded on ImageJ. Cell permeabilization was determined by the difference in the proportion of fluorescent cells before and 30 min after gamma irradiation (3 independent experiments).
# [2] = Thermal relaxation of the compound; assay type: physicochemical
# [3] = Quantification of ionizing-radiation-induced isomerization (molecular activation) by HPLC; assay type: physicochemical
# Protocol: Gamma ray irradiation. Gamma irradiation was performed with a Cesium-137 source (IBL 637) providing 662 keV photons at a dose rate of approximately 1 Gy/min. Radiation doses are expressed in Gray ([…]).
# Gd-containing compounds (GdAzo or GdFAzo) and control compounds (Azo or FAzo) (50 μM, 200 μL, PBS) were introduced into two 96-well microplates (10 wells for each compound). Both microplates were first irradiated under UV light (365 nm, 0.817 mW·cm^−2, 5 min). One microplate (plate 1) was then kept in the dark and used as a non-irradiated control while the second (plate 2) was irradiated with an increment of ionizing radiation doses (2 Gy, 3 Gy, 5 Gy and 10 Gy). After each irradiation, absorbance spectrophotometric and HPLC injection (method C) analyses were performed on the non-irradiated (plate 1) and irradiated (plate 2) compounds. A 26 min time lag between UV irradiation of plates 1 and 2 was used to allow analysis of the unirradiated control compounds (plate 1) at the same time as the ionizing irradiated compounds (plate 2) after UV irradiation. […] The absorbance spectra were plotted by the mean of triplicates. The relative amount of each isomer was obtained by HPLC (detection at the isosbestic point wavelength under elution conditions) and the molecular activation (%) was determined by the difference in the proportion of trans isomer in the medium (3 independent experiments).
molecule,measurement,setting,value
"CNC[C@H](O)[C@@H](O)[C@H](O)[C@H](O)CO.O=C([O-])CN1CCN(CC(=O)[O-])CCN(CC(=O)O)CCN(CC(=O)[O-])CC1.[Gd+3] [Dotarem®, reference compound]",therapeutic effect under ionizing radiation,"[1]; gamma irradiation (2 Gy), with or without Gem (0.1 μM), FIG. 2f",no therapeutic effect
"Gadolinium 4-(N-(1,4,7,10-tetraazacyclododecane-1,4,7-triacetic acid-10-glutaryl)-ethoxyamine)-4′-butoxyazobenzene [GdAzo]",cell viability 4 days after treatment,"[1]; 250 μM, absence of gemcitabine, gamma radiation at 2 Gy",23%
same,cell viability 4 days after treatment,"[1]; 250 μM, absence of gemcitabine, without irradiation",79%
same,cell viability 4 days after treatment,"[1]; 250 μM, presence of gemcitabine (0.1 μM), gamma radiation at 2 Gy",15%
same,cell viability 4 days after treatment,"[1]; 250 μM, presence of gemcitabine (0.1 μM), without irradiation",49%
same,cell viability 4 days after treatment,"[1]; 500 μM, absence of gemcitabine, gamma radiation at 2 Gy",18%
same,cell viability 4 days after treatment,"[1]; 500 μM, absence of gemcitabine, without irradiation",42%
same,cell viability 4 days after treatment,"[1]; 500 μM, presence of gemcitabine (0.1 μM), gamma radiation at 2 Gy",9.1%
same,cell viability 4 days after treatment,"[1]; 500 μM, presence of gemcitabine (0.1 μM), without irradiation",30%
same,cell viability 4 days after treatment,"[1]; 850 μM, absence of gemcitabine, gamma radiation at 2 Gy",3.0%
same,cell viability 4 days after treatment,"[1]; 850 μM, absence of gemcitabine, without irradiation",27%
same,cell viability 4 days after treatment,"[1]; 850 μM, presence of gemcitabine (0.1 μM), gamma radiation at 2 Gy",1.2%
same,cell viability 4 days after treatment,"[1]; 850 μM, presence of gemcitabine (0.1 μM), without irradiation",16%
same,cell permeabilization,"Cells (PANC-1); 250 μM, gamma rays at 2 Gy, 30 min after irradiation",6.9%
same,cell permeabilization,"Cells (PANC-1); 250 μM, without irradiation",1.2%
same,cell permeabilization,"Cells (PANC-1); 500 μM, gamma rays at 2 Gy, 30 min after irradiation",8.2%
same,cell permeabilization,"Cells (PANC-1); 500 μM, without irradiation",2.8%
same,cell permeabilization,"Cells (PANC-1); 850 μM, gamma rays at 2 Gy, 30 min after irradiation",12.4%
same,cell permeabilization,"Cells (PANC-1); 850 μM, without irradiation",7.5%
"Gadolinium 2,6-difluoro-4-(N-(1,4,7,10-tetraazacyclododecane-1,4,7-triacetic acid-10-glutaryl)-ethoxyamine)-2′,6′-difluoro-4′-butoxyazobenzene [GdFAzo]",thermal relaxation,[2],slow enough
same,activation of the compound compared to GdAzo,"[3]; in vitro experimental conditions, FIG. 1c",relatively low
same,activation by ionizing radiation,"[3]; ionizing radiation (X-rays, gamma rays, electrons), FIGS. 1a-f",can also be activated
